Reference: ChEMBL document CHEMBL4627274, “Optimized plant compound with potent anti-biofilm activity across gram-negative species” (Bioorg Med Chem, 2020)
Activity calls are given as the source filed them. The rule behind the calls is not given here.

What was measured:
Pseudomonas aeruginosa [1] = assay: Inhibition of swarming motility of Pseudomonas aeruginosa HONKR at 16 ug/mL incubated for 16 to 20 hrs relative to control; type: functional
Escherichia coli [2] = assay: Antibiofilm activity against Escherichia coli UTI89 incubated for 2 days at 23 degC followed by 1 day incubation at RT; type: functional
Escherichia coli [3] = assay: Inhibition of swarming motility of Escherichia coli PY31 at 16 ug/mL incubated for 16 to 20 hrs relative to control; type: functional
Escherichia coli [4] = assay: Inhibition of swarming motility of Escherichia coli clinical isolates incubated for 16 to 20 hrs; type: functional
Burkholderia cepacia = assay: Inhibition of swarming motility of Burkholderia cepacia clinical isolates incubated for 16 to 20 hrs; type: functional
Salmonella enterica = assay: Inhibition of swarming motility of Salmonella enterica clinical isolates incubated for 16 to 20 hrs; type: functional
Pseudomonas aeruginosa [5] = assay: Inhibition of swarming motility of Pseudomonas aeruginosa clinical isolates incubated for 16 to 20 hrs; type: functional
Pseudomonas aeruginosa [6] = assay: Inhibition of swarming motility of Pseudomonas aeruginosa HONKR at 10 ug incubated for 18 to 24 hrs; type: functional, organism-based

Compound	inhibition at 16 µg/mL (Pseudomonas aeruginosa [1])	MBIC50 (Escherichia coli [2])	inhibition at 16 µg/mL (Escherichia coli [3])	also measured
C[C@H]1[C@H](C)CC[C@]2(C(=O)O)CC[C@]3(C)C(=CC[C@@H]4[C@@]5(C)C[C@@H](O)[C@H](O)[C@@](C)(CO)[C@@H]5CC[C@]43C)[C@H]12 [ASIATIC ACID]	70%			
CN(C)CCNC(=O)[C@@H]1C[C@]2(C)[C@H]3CC=C4[C@@H]5CC(C)(C)CC[C@]5(C(=O)O)CC[C@@]4(C)[C@]3(C)CC[C@H]2C(C)(C)[C@H]1O	< 20%	4 µg/mL	30%	
CNC(=N)[C@@H]1C[C@]2(C)[C@H]3CC=C4[C@@H]5CC(C)(C)CC[C@]5(C(=O)O)CC[C@@]4(C)[C@]3(C)CC[C@H]2C(C)(C)[C@H]1O	< 20%	>=32 ug ml-1	30%	
CC1(C)CC[C@]2(C(=O)O)CC[C@]3(C)C(=CC[C@@H]4[C@@]5(C)Cc6cnc(N)nc6C(C)(C)[C@@H]5CC[C@]43C)[C@@H]2C1	80%	>=32 ug ml-1	90%	
CC1(C)CC[C@]2(C(=O)O)CC[C@]3(C)C(=CC[C@@H]4[C@@]5(C)Cc6c(O)nc(N)nc6C(C)(C)[C@@H]5CC[C@]43C)[C@@H]2C1	90%	>=32 ug ml-1	> 90%	
CC1(C)CC[C@]2(C(=O)O)CC[C@]3(C)C(=CC[C@@H]4[C@@]5(C)CC[C@H](O)C(C)(C)[C@@H]5CC[C@]43C)[C@@H]2C1 [OLEANOLIC_ACID]	> 90%	>=32 ug ml-1	80%	INH (Escherichia coli [4]): 16 µg/mL; INH (Burkholderia cepacia): 0.5 µg/mL; INH (Salmonella enterica): >64 µg/mL; INH (Pseudomonas aeruginosa [5]): 8 µg/mL
C[C@H]1[C@H](C)CC[C@]2(C(=O)O)CC[C@]3(C)C(=CC[C@@H]4[C@@]5(C)C[C@@H](O)[C@@H](O)C(C)(C)[C@@H]5CC[C@]43C)[C@H]12 [PYGENIC ACID A]	> 90%			
CN1C[C@@H]2C[C@]3(C)[C@H]4CC=C5[C@@H]6CC(C)(C)CC[C@]6(C(=O)O)CC[C@@]5(C)[C@]4(C)CC[C@H]3C(C)(C)[C@H]2OC1=O	< 20%	>=32 ug ml-1	< 20%	
CC1(C)CC[C@]2(C(=O)O)CC[C@]3(C)C(=CC[C@@H]4[C@@]5(C)C[C@@H](C(=O)NC6CC6)[C@H](O)C(C)(C)[C@@H]5CC[C@]43C)[C@@H]2C1	< 20%	4 µg/mL	70%	
C[C@H]1[C@H](C)CC[C@]2(C(=O)O)CC[C@]3(C)C(=CC[C@@H]4[C@@]5(C)C[C@@H](O)[C@H](O)[C@@](C)(CO)[C@@H]5[C@H](O)C[C@]43C)[C@H]12 [MADECASSIC ACID]	90%			
CC1(C)CC[C@]2(C(=O)O)CC[C@]3(C)C(=CC[C@@H]4[C@@]5(C)Cc6cn[nH]c6C(C)(C)[C@@H]5CC[C@]43C)[C@@H]2C1	> 90%	4 µg/mL	> 90%	INH (Escherichia coli [4]): >16 µg/mL; INH (Burkholderia cepacia): 0.5 µg/mL; INH (Salmonella enterica): 16 µg/mL; INH (Pseudomonas aeruginosa [5]): 2 µg/mL
CCCN(C)C(=O)[C@@H]1C[C@]2(C)[C@H]3CC=C4[C@@H]5CC(C)(C)CC[C@]5(C(=O)O)CC[C@@]4(C)[C@]3(C)CC[C@H]2C(C)(C)[C@H]1O	< 20%	4 µg/mL	50%	
CC1(C)CC[C@]2(C(=O)O)CC[C@]3(C)C(=CC[C@@H]4[C@@]5(C)C[C@@H](C6=NCCN6)[C@H](O)C(C)(C)[C@@H]5CC[C@]43C)[C@@H]2C1	< 20%	>=32 ug ml-1	> 90%	
CN(C)C[C@@H]1C[C@]2(C)[C@H]3CC=C4[C@@H]5CC(C)(C)CC[C@]5(C(=O)O)CC[C@@]4(C)[C@]3(C)CC[C@H]2C(C)(C)[C@H]1O	< 20%	>=32 ug ml-1	70%	
Cn1ccnc1[C@@H]1C[C@]2(C)[C@H]3CC=C4[C@@H]5CC(C)(C)CC[C@]5(C(=O)O)CC[C@@]4(C)[C@]3(C)CC[C@H]2C(C)(C)[C@H]1O	< 20%	>=32 ug ml-1	80%	
CC(C)CN(C)C[C@@H]1C[C@]2(C)[C@H]3CC=C4[C@@H]5CC(C)(C)CC[C@]5(C(=O)O)CC[C@@]4(C)[C@]3(C)CC[C@H]2C(C)(C)[C@H]1O	< 20%	>=32 ug ml-1	90%	
C[C@H]1[C@H](C)CC[C@]2(C(=O)O)CC[C@]3(C)C(=CC[C@@H]4[C@@]5(C)CC[C@H](O)C(C)(C)[C@@H]5CC[C@]43C)[C@H]12 [URSOLIC ACID]	> 90%			
CC1(C)CC[C@]2(C(=O)O)CC[C@]3(C)C(=CC[C@@H]4[C@@]5(C)C[C@@H](C(=O)N6CCOCC6)[C@H](O)C(C)(C)[C@@H]5CC[C@]43C)[C@@H]2C1	< 20%	4 µg/mL	< 20%	

Compound	inhibition at 16 µg/mL (Pseudomonas aeruginosa [1])	MBIC50 (Escherichia coli [2])	inhibition at 16 µg/mL (Escherichia coli [3])	also measured
COC(=O)[C@]12CCC(C)(C)C[C@H]1C1=CC[C@@H]3[C@@]4(C)CC[C@H](O)C(C)(C)[C@@H]4CC[C@@]3(C)[C@]1(C)CC2 [METHYL OLEANOLATE]	30%			
CNC(=O)[C@@H]1C[C@]2(C)[C@H]3CC=C4[C@@H]5CC(C)(C)CC[C@]5(C(=O)O)CC[C@@]4(C)[C@]3(C)CC[C@H]2C(C)(C)[C@H]1O	< 20%	4 µg/mL	< 20%	
COLISTIN				inhibition (Pseudomonas aeruginosa [6]): inactive
C=C(C)[C@@H]1CC[C@]2(C)CC[C@]3(C)[C@H](CC[C@@H]4[C@@]5(C)CC[C@H](O)C(C)(C)[C@@H]5CC[C@]43C)[C@@H]12 [LUPEOL]	< 20%			
CC1(C)CC[C@]2(C(=O)O)CC[C@]3(C)C(=CC[C@@H]4[C@@]5(C)C[C@@H](C6=NCCO6)[C@H](O)C(C)(C)[C@@H]5CC[C@]43C)[C@@H]2C1	< 20%	8 µg/mL	< 20%	
CCN(C[C@@H]1C[C@]2(C)[C@H]3CC=C4[C@@H]5CC(C)(C)CC[C@]5(C(=O)O)CC[C@@]4(C)[C@]3(C)CC[C@H]2C(C)(C)[C@H]1O)C(C)=O	< 20%	4 µg/mL	30%	
CC[C@H]1OC(=O)[C@H](C)[C@@H](O[C@H]2C[C@@](C)(OC)[C@@H](O)[C@H](C)O2)[C@H](C)[C@@H](O[C@@H]2O[C@H](C)C[C@H](N(C)C)[C@H]2O)[C@](C)(O)C[C@@H](C)CN(C)[C@H](C)[C@@H](O)[C@]1(C)O [AZITHROMYCIN]				INH (Burkholderia cepacia): >16 µg/mL; INH (Salmonella enterica): >16 µg/mL; INH (Pseudomonas aeruginosa [5]): >16 µg/mL
C=C(C)[C@@H]1CC[C@]2(C(=O)O)CC[C@]3(C)[C@H](CC[C@@H]4[C@@]5(C)CC[C@H](O)C(C)(C)[C@@H]5CC[C@]43C)[C@@H]12 [BETULINIC ACID]	80%			
CC1(C)CC[C@]2(C(=O)O)CC[C@]3(C)C(=CC[C@@H]4[C@@]5(C)C[C@@H](c6ncc[nH]6)[C@H](O)C(C)(C)[C@@H]5CC[C@]43C)[C@@H]2C1	< 20%	16 µg/mL	> 90%	
C[C@H]1[C@H](C)CC[C@]2(CO)CC[C@]3(C)C(=CC[C@@H]4[C@@]5(C)CC[C@H](O)C(C)(C)[C@@H]5CC[C@]43C)[C@H]12 [UVAOL]	< 20%			
CC1(C)CC[C@]2(C(=O)O)CC[C@]3(C)C(=CC[C@@H]4[C@@]5(C)C[C@@H](C6=NCCCN6)[C@H](O)C(C)(C)[C@@H]5CC[C@]43C)[C@@H]2C1	< 20%	4 µg/mL	60%	
Cn1cc2c(n1)C(C)(C)[C@@H]1CC[C@]3(C)[C@H](CC=C4[C@@H]5CC(C)(C)CC[C@]5(C(=O)O)CC[C@]43C)[C@@]1(C)C2	> 90%	8 µg/mL	80%	INH (Escherichia coli [4]): >16 µg/mL; INH (Burkholderia cepacia): 1 µg/mL; INH (Salmonella enterica): >16 µg/mL; INH (Pseudomonas aeruginosa [5]): 16 µg/mL
C[C@H]1[C@H](C)CC[C@]2(C(=O)O)CC[C@]3(C)C(=CC[C@@H]4[C@@]5(C)[C@H](O)[C@@H](O)[C@@H](O)[C@](C)(CO)[C@@H]5CC[C@]43C)[C@H]12	80%			
CN1CCN=C1[C@@H]1C[C@]2(C)[C@H]3CC=C4[C@@H]5CC(C)(C)CC[C@]5(C(=O)O)CC[C@@]4(C)[C@]3(C)CC[C@H]2C(C)(C)[C@H]1O	> 20%	>=32 ug ml-1	< 20%	
CC(=O)N(C(C)=O)c1ncc2c(n1)C(C)(C)[C@@H]1CC[C@]3(C)[C@H](CC=C4[C@@H]5CC(C)(C)CC[C@]5(C(=O)O)CC[C@]43C)[C@@]1(C)C2	90%	8 µg/mL	70%	
CN(C)C(=O)[C@@H]1C[C@]2(C)[C@H]3CC=C4[C@@H]5CC(C)(C)CC[C@]5(C(=O)O)CC[C@@]4(C)[C@]3(C)CC[C@H]2C(C)(C)[C@H]1O	< 20%	4 µg/mL	< 20%	
CC(C)(O/N=C(\C(=O)N[C@@H]1C(=O)N2C(C(=O)[O-])=C(C[n+]3ccccc3)CS[C@H]12)c1csc(N)n1)C(=O)O [CEFTAZIDIME]				INH (Escherichia coli [4]): 0.25 µg/mL; INH (Burkholderia cepacia): >8 µg/mL; INH (Salmonella enterica): 0.5 µg/mL; INH (Pseudomonas aeruginosa [5]): 4 µg/mL
C[C@H]1[C@H](C)CC[C@]2(C(=O)O)CC[C@]3(C)C(=CC[C@@H]4[C@@]5(C)C[C@@H](O)[C@@H](O)[C@](C)(CO)[C@@H]5CC[C@]43C)[C@H]12	90%			
